Values quoted from earlier work as cited in patent publication US20220016116A1, “DETERMINING DRUG COMBINATIONS, SYNERGISTIC DRUG COMBINATION AND USE THEREOF IN PANCREATIC CANCER TREATMENT” (Innoplexus AG, priority 2020, published 2022).

Experiments:
[1] = independent of drug concentrations from 250 ng/mL to 1000 ng/mL
[2] = target: human epidermal growth factor receptor (EGFR) family (EGFR/HER1, HER2, and HER4) tyrosine kinases; conditions: read-out: IC50 (affinity)
[3] = 45 mg orally once daily, CV 35%

SMILES: COc1cc2ncnc(Nc3ccc(F)c(Cl)c3)c2cc1NC(=O)/C=C/CN1CCCCC1 [Dacomitinib, (2E)-N-16-4-(piperidin-1-yl) but-2-enamide]
- Cmax, geometric mean [3]: 108 ng/mL
- area under the concentration-time curve (AUC) [3]: 2213 ng·h/mL
- volume of distribution (CV 18%): 1889 L
- mean absolute bioavailability (after oral administration): 80%
- time to reach maximum concentration (oral): approximately 6.0 h
- bound to plasma proteins [1]: 98%
- IC50 [2]: 6 nM
- cell migration and invasion (PDAC cell; through inhibition of EMT markers ZEB1, Snail and N-cadherin): attenuated cell migration and invasion
- PDAC cell proliferation (PDAC cell; via inhibition of FOXM1 and its targets Aurora kinase B and cyclin B1): diminishes PDAC cell proliferation
- apoptosis and radio-sensitivity (PDAC cell; via inhibition of anti-apoptotic proteins survivin and MCL1): induces apoptosis and potentiated radio-sensitivity
